Experimental findings from BindingDB's records for doi:10.1021/jm030092d (Research Triangle Institute, 2003) are described below.

The nature of the assay: Inhibition of binding of [3H]DADLE to Opioid receptor delta 1 in guinea pig membranes.

A word on the Ki: it is a dissociation constant, usually derived from enzyme kinetics or from competition with a known ligand. Higher therefore signals weaker binding.

`C[C@H]1CN(C/C=C/c2ccccc2Cl)CC[C@@]1(C)c1cccc(O)c1` [3-{(3R,4R)-1-[(E)-3-(2-Chloro-phenyl)-allyl]-3,4-dimethyl-piperidin-4-yl}-phenol] had a Ki of 168 nM.

In turn, `C[C@H]1CN(C/C=C/c2ccccc2)CC[C@@]1(C)c1cccc(O)c1` [3-[(3R,4R)-3,4-Dimethyl-1-((E)-3-phenyl-allyl)-piperidin-4-yl]-phenol] registered a Ki of 322 nM.

The compound `C[C@H]1CN(CC[C@H](O)C2CCCCC2)CC[C@@]1(C)c1cccc(O)c1` [3-[1-(3-Cyclohexyl-3-hydroxy-propyl)-3,4-dimethyl-piperidin-4-yl]-phenol] had a Ki of 198 nM.

`Cc1ccccc1/C=C/CN1CC[C@@](C)(c2cccc(O)c2)[C@@H](C)C1` [RTI-5989-25] showed a Ki of 142 nM.
